# Measurements as given in patent US12185720B2, “Chitooligosaccharides and methods for use in enhancing plant growth” (NOVOZYMES BIOAG A/S, priority 2011, dated 2025).
# Tested on: Tomato seeds of hybrid tomato var. Royal Mounty
# Test: In vitro tomato seedling root growth bioassay (agar medium)
# Format: in vivo
# Details: day 7; control water
# Experimental: Tomato seeds of hybrid tomato var. Royal Mounty were surface sterilized with 10% bleach solution for 10 minutes followed by 3 rinses with sterilized distilled water. Seeds were then dried in a laminar air flow hood for 3 hours. Seeds were then placed in petri-dishes on solidified agar medium containing various concentrations of different sources of the LCO illustrated in FIG. 1b (manufactured by Darmstadt, Germany and Grenoble, France) (also referred to in the examples as the “soybean LCO”) and the inventive CO illustrated in FIG. 2a (also referred to in the examples as the “pea CO” or “CO-V”). Seedling roots were measured by a hand ruler and root fresh weights were taken in a micro balance at day 7. Growth study was done in a growth chamber at 22° C.
substance,measurement,value
"LCO-V(C18:1, MeFuc) [Soybean LCO, reference compound]","root fresh weight, compared to control seedlings",significantly better than control seedlings
same,"root length, compared to control seedlings",significantly better than control seedlings
